The text below walks through data of patent US10039740B2, “Therapeutic combinations of sesquiterpenes and flavonoids” (Primus Pharmaceuticals, Inc., priority 2015, dated 2018).

Experiment [1] relates to RAW267.4 cells. In words: Cell proliferation of RAW267.4 cells (cell counting). The experiment is classed as cell-based, mouse. The following applies: cultured 3 days; for proliferation of RAW267.4 cells: p<0.001 vs control; for effect on RAW267.4 cells (proliferation): 1, 10, 50, 100, and 200 μg/ml, FIG. 4, FIG. 5. The method, then: Various experiments were conducted to determine effects of various active ingredients on RAW 267.4 in vitro. RAW267.4 cells refer to a mouse macrophage that produces various inflammatory cytokines including TNF-α and IL-1β. RAW267.4 cells may be prepared as 1×10^5/ml per well. These cells were cultured using a 24-well plate in DMEM containing 10% FBS and 1% P/S for 1, 2, 3 or 7 days in a water-saturated atmosphere containing 5% CO2 and 95% air at 37° C. RAW267.4 cells were cultured DMEM containing 10% FBS and 1% P/S in the presence of β-caryophyllene [1 (5 μM), 10, 50, 100 or 200 μg/ml of medium], baicalin [1 (2.24 μM), 10, 50, 100 or 200 μg/ml of medium], (+)-catechin [1 (3.45 μM), 10, 50, 100 or 200 μg/ml of medium], curcumin [1 (2.72 μM), 10, 50, 100 or 200 μg/ml of medium], or (+)-aromatic turmerone [1 (4.62 μM), 5, 10, 25 or 50 μg/ml of medium] for 3 days. After culture, cells were detached from each culture dish and counted. After trypsinization of each culture dish using 0.2% […] plus 0.02% EDTA in Ca^2+/Mg^2+-free PBS for 2 min at 37° C., detached cells from the dish were collected after centrifugation. Cells were resuspended in PBS solution and stained with eosin. Cell numbers were counted under a microscope using a Hemocytometer plate. Each dish was counted twice, and an average of two counts was calculated. Cell number was shown as number per well of plate. Statistical significance was determined using GraphPad InStat version 3 for Windows XP (GraphPad Software Inc. La Jolla, Calif.). Multiple comparisons were performed by one-way analysis of variance (ANOVA) with Tukey-Kramer multiple comparisons post test for parametric data as indicated. P<0.05 was considered statistically significant. The cells were cultured for 3 days in the presence of one or more various compounds to determine their anti-inflammatory effects.

Experiment [2] relates to RAW267.4 cells. As to the kind of experiment: Cell death of RAW267.4 cells (cell number after confluence). The experiment is classed as cell-based, mouse. The following applies: for death of RAW267.4 cells in vitro: conclusion from the cell death experiments. The method, then: RAW267.4 cells (1×10^5/ml per well) were cultured using a 24-well plate in DMEM containing 10% FBS and 1% P/S for 3 days until reaching confluence, and then the cells were cultured another for 2 days in the presence or absence of β-caryophyllene (1 or 10 μg/ml of medium) and/or baicalin or (+)-catechin (1 or 10 μg/ml of medium). After culture, cells were detached from each culture dish. After trypsinization of each culture dish using 0.2% […] plus 0.02% EDTA in Ca^2+/Mg^2+-free PBS for 2 min at 37° C., detached cells from the dish were collected after centrifugation. Cells were resuspended in PBS solution and stained with eosin. Cell numbers were counted under a microscope using a Hemocytometer plate. Each dish was counted twice, and an average of two counts was calculated. Cell number was shown as number per well of plate. Statistical significance was determined using GraphPad InStat version 3 for Windows XP (GraphPad Software Inc. La Jolla, Calif.). Multiple comparisons were performed by one-way analysis of variance (ANOVA) with Tukey-Kramer multiple comparisons post test for parametric data as indicated. P<0.05 was considered statistically significant.

With `CC(C)=CC(=O)C[C@H](C)c1ccc(C)cc1` [(+)-aromatic turmerone, reference compound], the “proliferation of RAW267.4 cells” value with RAW267.4 cells [1] (25 and 50 μg/ml, FIG. 3) is “significantly increased”.

On to `Oc1cc(O)c2c(c1)O[C@H](c1ccc(O)c(O)c1)[C@@H](O)C2` [(+)-catechin], for which the “effect on RAW267.4 cells (proliferation)” value in the experiment with RAW267.4 cells [1] was “did not result in a significant effect”. Moreover, the “death of RAW267.4 cells in vitro” value in the experiment with RAW267.4 cells [2] was “do not have significant effects”.

`O=C(O)[C@H]1O[C@@H](Oc2cc3oc(-c4ccccc4)cc(=O)c3c(O)c2O)[C@H](O)[C@@H](O)[C@@H]1O` [baicalin]: the “effect on RAW267.4 cells (proliferation)” value in the experiment with RAW267.4 cells [1] is “did not result in a significant effect”. Also, in the experiment with RAW267.4 cells [2], the “death of RAW267.4 cells in vitro” value is “do not have significant effects”.

As to `COc1cc(/C=C/C(=O)CC(=O)/C=C/c2ccc(O)c(OC)c2)ccc1O` [curcumin, reference compound], the “proliferation of RAW267.4 cells” value with RAW267.4 cells [1] (100 and 200 μg/ml, FIG. 2) was “suppressed”.

In the case of `C=C1CC/C=C(\C)CC[C@@H]2[C@@H]1CC2(C)C` [β-caryophyllene], the “suppressive effect on cell proliferation” value in the experiment with RAW267.4 cells [1] (1 or 10 μg/ml of each compound, FIG. 6, 7, 8, 10) is “did not result any significant suppressive effect”. In addition, in the experiment with RAW267.4 cells [1] (50, 100, and 200 μg/ml of medium, FIG. 1), the “proliferation of RAW267.4 cells” value is “suppressed”. The “number of RAW267.4 cells (cell death)” value with RAW267.4 cells [2] (3 days without chemicals, then 2 days with compound(s) at about 1 or 10 μg/ml of medium, FIG. 13) is recorded as “did not induce a significant decrease”. In addition, in the experiment on RAW267.4 cells [2], the “death of RAW267.4 cells in vitro” value was “do not have significant effects”.
